The subject of experiment [1] is cholesterol. Put plainly: APCC in vivo screen: rats on high fat, high cholesterol diet (PCC), blood cholesterol analysis. Details: species or system male Sprague-Dawley rats. The text has this:
In one in vivo screen designated APCC, male Sprague-Dawley rats (200 to 225 g) were randomly divided into treatment groups and dosed at 4 PM with either vehicle (CMC/Tween) or suspensions of compounds in vehicle. The normal chow diet was then replaced with a high fat, high cholesterol diet (designated PCC) containing 0.5% cholic acid. The rats consumed this diet ad libitum during the night and were sacrificed at 8 AM to obtain blood samples for cholesterol analysis using standard procedures. Statistical differences between mean cholesterol values for the same vehicle were determined using analysis of variance followed by Fisher's least significant test.

Experiment [2] deals with acyl-CoA:cholesterol acyltransferase (ACAT). The experiment is described as follows: in vitro ACAT inhibition (LAI): radiolabeled cholesterol oleate formed from radiolabeled oleic acid in rat liver microsomes. Format: biochemical. Conditions: read-out: LAI (IC50, concentration of test compound required to inhibit the activity of the enzyme by 50%). The text has this:
The test assesses the ability of a test compound to inhibit the acylation of cholesterol by oleic acid by measuring the amount of radiolabeled cholesterol oleate formed from radiolabeled oleic acid in a tissue preparation containing rat liver microsomes.
A general note: Liver microsomes are vesicles of endoplasmic reticulum, rich in cytochrome P450 enzymes.

The structures appear in SMILES notation. pIC50: −log10 of the molar value. Where two headings read alike, the source gives them in different places.

For `COP(=O)(Cc1c(C(C)C)cc(C(C)C)cc1C(C)C)NC(=O)Cc1c(C(C)C)cccc1C(C)C` (stereo not drawn) [iPr H OCH3 CH2, Phosphonamidic acid, N-[[2,6-bis(1-methyl-ethyl)phenyl)acetyl]-P-[[2,4,6-tris(1-methyl-ethyl)phenyl)methyl]-, methyl ester], the APCC in experiment [1] (rat, in vivo, 3 mg/kg) is listed as -44. For the same compound, in experiment [2], the pIC50 was 6.54. In experiment [1] (rat, in vivo, 1 mg/kg), `COP(=O)(NC(=O)Cc1c(C(C)C)cc(C(C)C)cc1C(C)C)Oc1c(C(C)C)cccc1C(C)C` (stereo not drawn) [iPr H OCH3 O, [(2,4,6-Triisopropyl-phenyl)-acetyl]-phosphoramidic acid 2,6-diisopropyl-phenyl ester methyl ester] displayed an APCC of -18. In addition, the pIC50 in experiment [2] is 5.32. In experiment [1] (rat, in vivo, 10 mg/kg), `COP(=O)(NC(=O)Cc1c(C(C)C)cc(C(C)C)cc1C(C)C)Oc1c(C(C)C)cc(Cl)cc1C(C)C` (stereo not drawn) [Cl iPr OCH3 O, Phosphoramidic acid, [[2,4,6-tris(1-methylethyl)phenyl]acetyl]-, 4-chloro-2,6-bis(1-methylethyl)phenyl methyl ester] came in with an APCC of -12. The pIC50 in experiment [2] is below 5.30.

As to `CC(C)c1cc(C(C)C)c(CC(=O)NP(=O)(Oc2c(C(C)C)cccc2C(C)C)c2ccccc2)c(C(C)C)c1` (stereo not drawn) [H iPr Ph O, Phosphonamidic acid, P-phenyl-N-[[2,4,6-tris(1-methylethyl)phenyl]acetyl]-,2,6-bis(1-methylethyl)phenyl ester], the APCC in experiment [1] (rat, in vivo, 10 mg/kg) was -25. The pIC50 in experiment [2] was 5.60.

`COP(=O)(Cc1c(C(C)C)cccc1C(C)C)NC(=O)Cc1c(C(C)C)cc(C(C)C)cc1C(C)C` (stereo not drawn) [H iPr OCH3 CH2, Phosphonamidic acid, P-[[2,6-bis(1-methylethyl)phenyl]methyl]-N-[[2,4,6-tris(1-methylethyl)phenyl]acetyl]-, methyl ester]: the pIC50 in experiment [2] was 5.92.

In experiment [1] (dose 10 mg/kg, rats, single dose at 4 PM, PCC diet overnight, blood cholesterol at 8 AM), `CC(C)c1cc(C(C)C)c(CP(N)(=O)OCc2ccccc2)c(C(C)C)c1` (stereo not drawn) [Monobenzyl, 2,4,6-triisopropylbenzylphosphonamide] had an APCC of -4. Moreover, the pIC50 in experiment [2] (rat liver microsomes) was 5.44. Consider `COP(=O)(Cc1c(C(C)C)cc(C(C)C)cc1C(C)C)NC(=O)Cc1c(C(C)C)cc(C(C)C)cc1C(C)C` (stereo not drawn) [iPr iPr OCH3 CH2, Phosphonamidic acid, N-[[2,4,6-tris(1-methylethyl)phenyl]acetyl]-P-[[2,4,6-tris(1-methylethyl)phenyl]methyl]-, methyl ester], for which, in experiment [2], the pIC50 was 6.13.

The record behind these values is patent US5807846A, “Phosphonamide ACAT inhibitors” (Warner-Lambert Company, priority 1997, dated 1998).
